Read-outs that look alike come from different tables or passages of the source.
Assay: Phase I trial of oral PCLX-001: plasma pharmacokinetics, noncompartmental analysis (Phoenix WinNonlin 8.3)
Assay type: in vivo, human
Conditions: human, plasma
Excerpt: The clinical trial is entitled “Phase I Trial of PCLX-001 in B-cell Non-Hodgkin Lymphoma and Advanced Solid Malignancies” and registered at clinicaltrials.gov as NCT04836195. It is a phase I dose-escalation study of oral PCLX-001, conducted in a multicenter, non-randomized, open-label, non-controlled design. The study is comprised of two parts: Part A (single-agent dose escalation) and Part B (single-agent expansion cohorts).
Patients are to receive daily oral PCLX-001 on 28-day cycles, beginning with a starting dose of 20 mg.
[…] After dosing, the blood samples (volumes 3 mL) were serially collected into heparinized tubes from a right forearm butterfly cannula. All blood fluid specimens were frozen and later assayed using a validated UHPLC-MS detection method.
Noncompartmental pharmacokinetic analysis was performed using Phoenix WinNonlin 8.3 using trapezoidal rule and linear up log down methodology. WinNonlin was allowed to pick optimal terminal phases.
Nonparametric superposition was performed using Phoenix WinNonlin Nonparametric Superposition to predict steady state data based upon Day 1 data for each patient. It utilized the 8- and 24-hour time points for estimation of terminal phase for the purposes of this exercise. We simulated 20 mg daily oral dosing and simulations were conducted out to steady state. Results are show in FIGS. 5, 6, and 7.
In the non-compartmental analysis, Phoenix WinNonlin 8.3 trapezoidal rule was used, with linear up log down method. This allowed WinNonlin to pick optimal terminal phase (WinNonlin will accept Rsq adjusted to >0.7). Additional analysis to assess adequate fie included visual inspection of data, and AUCextrap should be <15%.
Phoenix WinNonlin 8.3 trapezoidal rule. Used linear up log down method. Allowed WinNonlin to pick optimal terminal phase (WinNonlin will accept Rsq adjusted >0.7).
Other analysis to assess adequate fit. Visual inspection of data. AUCextrap should be <15%.

[1] = oral, 140 mg, Table 4, not on Pantoprazole, 140 mg, N 1, Day 1
[2] = oral, 140 mg, Table 5, Mean (CV), on Pantoprazole, 140 mg, N 2, Day 1
[3] = oral, 140 mg, Table 5, Mean (CV), on Pantoprazole, 140 mg, N 2, Day 15
[4] = po, 20 mg, Table 1A, Patient 115-002-001 (Patient 1), Day 1, 20 mg oral daily
[5] = po, 20 mg, Table 1A, Patient 115-002-001 (Patient 1), Day 15, 20 mg oral daily
[6] = po, 20 mg, Table 1A, Patient 115-002-002 (Patient 2), Day 15, 20 mg oral daily
[7] = po, 20 mg, Table 1A, Patient 115-002-004 (Patient 3), Day 1, 20 mg oral daily
[8] = po, 20 mg, Table 1A, Patient 115-002-004 (Patient 3), Day 15, 20 mg oral daily

Cc1c(NS(=O)(=O)c2c(Cl)cc(-c3ccnc(N4CCNCC4)c3)cc2Cl)c(CC(C)C)nn1C [PCLX-001, 2,6-dichloro-N-(3-isobutyl-1,5-dimethyl-1H-pyrazol-4-yl)-4-(2-(piperazin-1-yl)pyridin-4-yl)benzene sulfonamide]
Cmax (oral, 70 mg, Table 4, not on Pantoprazole, 70 mg, N 1, Day 15): 629 ng/mL | AUC(0-t) (oral, 70 mg, Table 4, not on Pantoprazole, 70 mg, N 1, Day 15, read-out: AUClast): 7300 ng·h/mL | Tmax (oral, 70 mg, Table 4, not on Pantoprazole, 70 mg, N 1, Day 15, read-out: Tmax): 4 h | Cmax (oral, 70 mg, Table 5, Mean (CV), on Pantoprazole, 70 mg, N 2, Day 1): 283 ng/mL | AUC(0-t) (oral, 70 mg, Table 5, Mean (CV), on Pantoprazole, 70 mg, N 2, Day 1, read-out: AUClast): 3260 ng·h/mL | Cmax (oral, 70 mg, Table 5, Mean (CV), on Pantoprazole, 70 mg, N 2, Day 15): 386 ng/mL | AUC(0-t) (oral, 70 mg, Table 5, Mean (CV), on Pantoprazole, 70 mg, N 2, Day 15, read-out: AUClast): 5760 ng·h/mL | Tmax (oral, 70 mg, Table 5, median (min, max), on Pantoprazole, 70 mg, N 2, Day 1, read-out: Tmax): 6 h | Tmax (oral, 70 mg, Table 5, median (min, max), on Pantoprazole, 70 mg, N 2, Day 15, read-out: Tmax): 6 h | Cmax (oral, 100 mg, Table 4, Mean (CV), not on Pantoprazole, 100 mg, N 2, Day 15): 1340 ng/mL | Cmax (oral, 100 mg, Table 4, Mean (CV), not on Pantoprazole, 100 mg, N 4, Day 1): 1770 ng/mL | AUC(0-t) (oral, 100 mg, Table 4, Mean, not on Pantoprazole, 100 mg, N 2, Day 15, read-out: AUClast): 17400 ng·h/mL | AUC(0-inf) (oral, 100 mg, Table 4, Mean, not on Pantoprazole, 100 mg, N 4, Day 1): 18000 ng·h/mL | AUC(0-t) (oral, 100 mg, Table 4, Mean, not on Pantoprazole, 100 mg, N 4, Day 1, read-out: AUClast): 15100 ng·h/mL | half-life (oral, 100 mg, Table 4, Mean, not on Pantoprazole, 100 mg, N 4, Day 1, read-out: t½ (converted)): 7.26 h | Tmax (oral, 100 mg, Table 4, median (min, max), not on Pantoprazole, 100 mg, N 2, Day 15, read-out: Tmax): 3 h | Tmax (oral, 100 mg, Table 4, median (min, max), not on Pantoprazole, 100 mg, N 4, Day 1, read-out: Tmax): 2 h | AUC(0-inf) (oral, 100 mg, Table 4, not on Pantoprazole, 100 mg, N 2, Day 15, value from N = 1 patient): 19400 ng·h/mL | half-life (oral, 100 mg, Table 4, not on Pantoprazole, 100 mg, N 2, Day 15, value from N = 1 patient, read-out: t½ (converted)): 7.56 h | Cmax (oral, 140 mg, Table 4, Mean (CV), not on Pantoprazole, 140 mg, N 1, Day 15): 903 ng/mL | AUC(0-inf) (oral, 140 mg, Table 4, Mean, not on Pantoprazole, 140 mg, N 1, Day 15): 10700 ng·h/mL | AUC(0-t) (oral, 140 mg, Table 4, Mean, not on Pantoprazole, 140 mg, N 1, Day 15, read-out: AUClast): 7680 ng·h/mL | Tmax (oral, 140 mg, Table 4, median (min, max), not on Pantoprazole, 140 mg, N 1, Day 15, read-out: Tmax): 1.5 h | AUC(0-inf) [1]: 24200 ng·h/mL | Cmax [1]: 2710 ng/mL | AUC(0-t) (oral, 140 mg, Table 4, not on Pantoprazole, 140 mg, N 1, Day 1, read-out: AUClast): 21200 ng·h/mL | Tmax (oral, 140 mg, Table 4, not on Pantoprazole, 140 mg, N 1, Day 1, read-out: Tmax): 0.5 h | half-life (oral, 140 mg, Table 4, not on Pantoprazole, 140 mg, N 1, Day 1, read-out: t½ (converted)): 7.91 h | half-life (oral, 140 mg, Table 4, not on Pantoprazole, 140 mg, N 1, Day 15, read-out: t½ (converted)): 13.8 h | AUC(0-inf) [2]: 7830 ng·h/mL | Cmax [2]: 1300 ng/mL | AUC(0-t) (oral, 140 mg, Table 5, Mean (CV), on Pantoprazole, 140 mg, N 2, Day 1, read-out: AUClast): 7260 ng·h/mL | AUC(0-inf) [3]: 10700 ng·h/mL | Cmax [3]: 903 ng/mL | AUC(0-t) (oral, 140 mg, Table 5, Mean (CV), on Pantoprazole, 140 mg, N 2, Day 15, read-out: AUClast): 7680 ng·h/mL | half-life (oral, 140 mg, Table 5, Mean, on Pantoprazole, 140 mg, N 2, Day 1, read-out: t½ (converted)): 6.71 h | half-life (oral, 140 mg, Table 5, Mean, on Pantoprazole, 140 mg, N 2, Day 15, read-out: t½ (converted)): 13.8 h | Tmax (oral, 140 mg, Table 5, median (min, max), on Pantoprazole, 140 mg, N 2, Day 1, read-out: Tmax): 1 h | Tmax (oral, 140 mg, Table 5, median (min, max), on Pantoprazole, 140 mg, N 2, Day 15, read-out: Tmax): 1.5 h | Tmax (oral, Example 2, all dose groups, Days 1 and 15, read-out: Tmax, median (range)): 2 h | half-life (oral, Example 2, range across the dose groups (20 to 140 mg), read-out: t1/2): 5.02 to 17.4 h | AUC(0-inf) [4]: 2030 ng·h/mL | Cmax [4]: 353 ng/mL | AUC(0-t) (po, 20 mg, Table 1A, Patient 115-002-001 (Patient 1), Day 1, 20 mg oral daily, read-out: AUClast or AUCtau): 1710 ng·h/mL | half-life (po, 20 mg, Table 1A, Patient 115-002-001 (Patient 1), Day 1, 20 mg oral daily, read-out: Half-life (converted)): 8.54 h | Tmax (po, 20 mg, Table 1A, Patient 115-002-001 (Patient 1), Day 1, 20 mg oral daily, read-out: Tmax): 1 h | AUC(0-inf) [5]: 3500 ng·h/mL | Cmax [5]: 479 ng/mL | AUC(0-t) (po, 20 mg, Table 1A, Patient 115-002-001 (Patient 1), Day 15, 20 mg oral daily, read-out: AUClast or AUCtau): 2730 ng·h/mL | half-life (po, 20 mg, Table 1A, Patient 115-002-001 (Patient 1), Day 15, 20 mg oral daily, read-out: Half-life (converted)): 10.3 h | Tmax (po, 20 mg, Table 1A, Patient 115-002-001 (Patient 1), Day 15, 20 mg oral daily, read-out: Tmax): 1 h | Cmax (po, 20 mg, Table 1A, Patient 115-002-002 (Patient 2), Day 1, 20 mg oral daily): 127 ng/mL | AUC(0-t) (po, 20 mg, Table 1A, Patient 115-002-002 (Patient 2), Day 1, 20 mg oral daily, read-out: AUClast or AUCtau): 1300 ng·h/mL | Tmax (po, 20 mg, Table 1A, Patient 115-002-002 (Patient 2), Day 1, 20 mg oral daily, read-out: Tmax): 4 h | AUC(0-inf) [6]: 2520 ng·h/mL | Cmax [6]: 215 ng/mL | AUC(0-t) (po, 20 mg, Table 1A, Patient 115-002-002 (Patient 2), Day 15, 20 mg oral daily, read-out: AUClast or AUCtau): 2010 ng·h/mL | half-life (po, 20 mg, Table 1A, Patient 115-002-002 (Patient 2), Day 15, 20 mg oral daily, read-out: Half-life (converted)): ~10 h | Tmax (po, 20 mg, Table 1A, Patient 115-002-002 (Patient 2), Day 15, 20 mg oral daily, read-out: Tmax): 2 h | AUC(0-inf) [7]: 1880 ng·h/mL | Cmax [7]: 304 ng/mL | AUC(0-t) (po, 20 mg, Table 1A, Patient 115-002-004 (Patient 3), Day 1, 20 mg oral daily, read-out: AUClast or AUCtau): 1780 ng·h/mL | half-life (po, 20 mg, Table 1A, Patient 115-002-004 (Patient 3), Day 1, 20 mg oral daily, read-out: Half-life (converted)): 5.61 h | Tmax (po, 20 mg, Table 1A, Patient 115-002-004 (Patient 3), Day 1, 20 mg oral daily, read-out: Tmax): 2 h | AUC(0-inf) [8]: 2150 ng·h/mL | Cmax [8]: 295 ng/mL | AUC(0-t) (po, 20 mg, Table 1A, Patient 115-002-004 (Patient 3), Day 15, 20 mg oral daily, read-out: AUClast or AUCtau): 1910 ng·h/mL
